Reference: patent US10517863B2, “Trilobine and its natural analogs for use as a drug” (PIERRE FABRE MEDICAMENT, priority 2015, dated 2019)

Key:
[1] = system: P16 expression in colon cancer cells HCT116; test: P16 reexpression by RT-qPCR; type: cell-based, human; details: at 100 nM, at 3 days
[2] = system: P15 promoter in leukaemia KG1 cells; test: P15 (CDKN2B) promoter demethylation, bisulfite PCR cloning-sequencing; type: cell-based, human; details: after 3 days, at 0.32 μM
Procedure: Cancer cell lines (colon HCT116 or leukaemia KG1) were treated with the compounds as indicated in the Data Tables and then analysed as following.
DNA was isolated from cultured cells using the DNeasy Blood and Tissue Kit according to the manufacturer's specifications (Qiagen). DNA bisulphite conversion was performed on 2 μg of DNA using the EZ DNA Methylation-Gold Kit according to the manufacturer's specifications (Zymo Research) and bisulfited DNA was eluted with 10 μL of water. Two different techniques were used to analyse the DNA methylation profile after bisulfite conversion of genomic DNA: (A) cloning and sequencing or (B) COBRA. The primers for each promoter are specified in the Table 3.
Sequencing of bisulfite-treated DNA allowing resolution of the methylation state of every cytosine in the target sequence, at single molecule resolution, is considered as the “gold standard” for DNA methylation analysis.
Bisulfite-specific primers with a minimum length of 18 bp were designed using Primer 3 program. […]
PCR amplicons were cloned with the StrataClone Ultra Blunt PCR Cloning Kit (Agilent Technologies), according to the manufacturers' instructions and up to 24 clones were picked for sequencing. […] Electrophoregram files and methylation signals at a given CpG site were quantified using the BISMA software as described in the literature (Rohde et al. BMC Bioinformatics 2010, 11, 230).

[3] = system: panel of cancer cell lines; test: Anti-proliferative activity (ATPLite), whole panel; type: cell-based; details: Homo sapiens; range over the panel
Procedure: (§1) To measure the anti-proliferative properties of tested molecules, 2×10^4 cells are seeded at day 0 in a 96 wells plate. The compounds to be tested, stored at −20° C. as 10^−2 M stock solution in 100% DMSO, are freshly diluted on day 1 in the cell medium, before adding a dose range of 3.2 nM to 10 μM to the cells. The cell viability is assessed using the ATPLite kit from Perkin (ATPlite 1 Step Luminescence Assay System, ref 3016739), following the provider instructions. The raw data are analyzed with GraphPad Prism software (v4.03) to generate IC50 values corresponding to the compound concentrations giving 50% reduction in cell viability. The values presented are the mean results of at least two independent experiments. The standard errors are indicated.

[4] = system: luciferase reporter under the control of a methylated CMV promoter in leukemia KG-1 cells; test: CMV-luc reexpression (luciferase reporter) in KG-1 cells; type: cell-based, human; details: for Reactivation fold of luciferase gene reporter in KG-1 CMV-Luc: 24 hour incubation, fold induction vs DMSO, mean ± standard error
Procedure: Aiming at identifying new DNMT inhibitors, plant extract samples were tested for their ability to reactivate gene expression upon use of an integrated luciferase reporter system under the control of a methylated CMV promoter in leukemia KG-1 cells which inhibits its expression (CMV-luc assay reported in following Table). […] The extract was fractionated by preparative HPLC. Identification of the active components was accomplished by HRMS and NMR spectroscopy. The pure compounds isolated from the extract through bio-guided fractionation are trilobine and bisbenzylisoquinoline analogue products. The active compounds were then further evaluated for their ability to inhibit DNMTs in vitro and DNA methylation in cancer cells.
KG-1 cells were stably transfected with the firefly luciferase reporter gene (luc+ from pGL3; Promega) under the control of the cytomegalovirus (CMV) promoter (from pEGFP-N1; Clontech Laboratories Inc.) partially methylated (50%). 20,000 cells per well were seeded in a 96-well plate. After 24 hour incubation in the presence of the test compound or solvant (DMSO), the induction of the promoter was measured by quantification of the luciferase signal with the Brite-lite assay system (PerkinElmer) according to the manufacturer's protocol. The luminescence was measured on an EnVision multilabel plate reader (PerkinElmer), and the data are expressed as the fold induction as compared with the DMSO control. The mean of three experiments and the standard error is reported.

[5] = system: KG-1; test: Anti-proliferative activity (ATPLite); type: cell-based; details: Homo sapiens; KG-1, Leukaemia; +/− standard error; read-out: Antiproliferative activity EC50
Procedure: as §1

[6] = system: HCT-116; test: Anti-proliferative activity (ATPLite); type: cell-based; details: Homo sapiens; HCT-116, Colorectal; +/− standard error; read-out: Antiproliferative activity EC50
Procedure: as §1

[7] = system: Karpass299; test: Anti-proliferative activity (ATPLite); type: cell-based; details: Homo sapiens; Karpass299, Lymphoma; +/− standard error; read-out: Antiproliferative activity EC50
Procedure: as §1

SMILES: COc1ccc2cc1Oc1ccc(cc1)C[C@@H]1NCCc3cc(OC)c4c(c31)Oc1cc3c(cc1O4)CCN(C)[C@H]3C2 [Compound 1, Trilobine]
- Rexpression (RT qPCR) P16/HCT116 expression fold to non-treated cells [1]: 5.0 ± 2.14 fold
- Demethylation (COBRA) P15/KG1 [2]: −25% after 3 days
- IC50 [3]: 900 to 6800 nM
- Reactivation fold of luciferase gene reporter in KG-1 CMV-Luc ([4]; 0.1 μM): 1.1 ± 0.1 fold
- Reactivation fold of luciferase gene reporter in KG-1 CMV-Luc ([4]; 0.32 μM): 1.9 ± 1.2 fold
- Reactivation fold of luciferase gene reporter in KG-1 CMV-Luc ([4]; 0.5 μM): 1.6 ± 0.8 fold
- Reactivation fold of luciferase gene reporter in KG-1 CMV-Luc ([4]; 1 μM): 2.6 ± 1.4 fold
- Reactivation fold of luciferase gene reporter in KG-1 CMV-Luc ([4]; 3.2 μM): 3.5 ± 1.1 fold
- Reactivation fold of luciferase gene reporter in KG-1 CMV-Luc ([4]; 5 μM): 6.4 ± 0.1 fold
- FI-24 h, KG1 CMV-Luc model ([4]; at 5 μM, 24 h): 5.8 ± 0.6
- EC50 [5]: 2200 nM
- EC50 [6]: 1200 nM
- EC50 [7]: 1300 nM
